Measurements: patent EP0187355A1, “Process for preparing beta-lactam antibiotics” (E.R. Squibb & Sons, Inc., priority 1981, dated 1982)
Counter-ions that a name gives are not always drawn.

What was measured:
Assay in all cases: MIC, agar dilution
Format in all cases: cell-based
[1] = test system: Enterobacter cloacae, 8236; details: K-10 agar, 10^4 CFU, 37°C; for MIC: Enterobacter cloacae, 8236, 18 h
How it was run: (§1)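 Broth cultures grown 18-20 h at 37°C, diluted 1:100 in K-10 broth, applied by multipoint inoculator at 10^4 CFU onto K-10 agar holding twofold compound dilutions, 100 to 0.05 µg/ml final. MIC taken as lowest concentration inhibiting growth.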

[2] = test system: Streptococcus agalactiae, 9287; details: K-10 agar, 10^4 CFU, 37°C; for MIC: Streptococcus agalactiae, 9287, 18 h, read-out: M.I.C.
How it was run: as §1

Micrococcus luteus, 2495 = details: K-10 agar, 10^4 CFU, 37°C; for MIC: Micrococcus luteus, 2495, 18 h, read-out: M.I.C.
How it was run: as §1

Escherichia coli, 8294 = details: K-10 agar, 10^4 CFU, 37°C; for MIC: Escherichia coli, 8294, 18 h
How it was run: (§2)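 Overnight broth cultures (37°C, 18–20 h) were diluted 1:100 and spotted onto K-10 agar plates containing twofold compound dilutions (final 100 to 0.05 µg/ml), giving 10^4 CFU per spot. After 18 h at 37°C, MIC was read as the lowest concentration inhibiting growth.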

[3] = test system: Klebsiella pneumoniae, 9527; details: K-10 agar, 10^4 CFU, 37°C; for MIC: Klebsiella pneumoniae, 9527, 18 h, read-out: M.I.C.
How it was run: as §2

[4] = test system: Streptococcus faecalis, 9011; details: Streptococcus faecalis, 9011, K-10 agar, 10^4 CFU, 37°C, 18 hours; for MIC: Enterococcus faecalis, read-out: M.I.C.
How it was run: as §2

Escherichia coli, 10857 = details: K-10 agar, 10^4 CFU, 37°C; for MIC: Escherichia coli, 10857, 18 h
How it was run: as §2

[5] = test system: Klebsiella aerogenes, 10440; details: K-10 agar, 10^4 CFU, 37°C, 18 hours; for MIC: read-out: M.I.C.
How it was run: as §2

Proteus rettgeri, 8479 = details: K-10 agar, 10^4 CFU, 37°C, 18 hours; for MIC: Providencia rettgeri, read-out: M.I.C.
How it was run: as §2

[6] = test system: Staphylococcus aureus, 2399; details: Staphylococcus aureus, 2399, K-10 agar, 10^4 CFU, 37°C, 18 hours; for MIC: Staphylococcus aureus, 2399, 18 h, read-out: M.I.C.
How it was run: as §2

[7] = test system: Acinetobacter calcoaceticus, 8333; details: K-10 agar, 10^4 CFU, 37°C; for MIC: Acinetobacter calcoaceticus, 8333, 18 h, read-out: M.I.C.
How it was run: as §2

[8] = test system: Staphylococcus aureus, 1276; details: Staphylococcus aureus, 1276, K-10 agar, 10^4 CFU, 37°C, 18 hours; for MIC: read-out: M.I.C.
How it was run: as §2

[9] = test system: Pseudomonas aeruginosa, 9545; details: K-10 agar, 10^4 CFU, 37°C; for MIC: Pseudomonas aeruginosa, 9545, 18 h, read-out: M.I.C.
How it was run: as §2

[10] = test system: Citrobacter freundii, 9518; details: K-10 agar, 10^4 CFU, 37°C, 18 hours; for MIC: read-out: M.I.C.
How it was run: as §2

[11] = test system: Pseudomonas aeruginosa, 8329; details: K-10 agar, 10^4 CFU, 37°C, 18 hours; for MIC: read-out: M.I.C.
How it was run: as §2

Proteus vulgaris, 9416 = details: K-10 agar, 10^4 CFU, 37°C, 18 hours; for MIC: read-out: M.I.C.
How it was run: as §2

Salmonella typhosa, 1195 = details: K-10 agar, 10^4 CFU, 37°C; for MIC: Salmonella enterica, TYPHOSA, 18 h
How it was run: as §2

Proteus mirabilis, 3855 = details: K-10 agar, 10^4 CFU, 37°C; for MIC: Proteus mirabilis, 3855, 18 h, read-out: M.I.C.
How it was run: as §2

[12] = test system: Staphylococcus aureus, 2400; details: Staphylococcus aureus, 2400, K-10 agar, 10^4 CFU, 37°C, 18 hours; for MIC: read-out: M.I.C.
How it was run: as §2

[13] = test system: Enterobacter aerogenes, 10078; details: Enterobacter aerogenes, 10078, K-10 agar, 10^4 CFU, 37°C, 18 hours; for MIC: Klebsiella aerogenes, 10078, 18 h, read-out: M.I.C.
How it was run: as §2

Shigella sonnei, 8449 = details: K-10 agar, 10^4 CFU, 37°C; for MIC: Shigella sonnei, 8449, 18 h
How it was run: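 MIC, the lowest compound concentration preventing visible growth, is read after plates incubate 18 h at 37°C. Plates hold K-10 agar with twofold drug dilutions spanning 100 to 0.05 µg/ml, each spot-inoculated with 10^4 CFU.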

[14] = test system: Staphylococcus aureus, 10165; details: Staphylococcus aureus, 10165, K-10 agar, 10^4 CFU, 37°C, 18 hours; for MIC: read-out: M.I.C.
How it was run: as §2

Escherichia coli, 10909 = details: K-10 agar, 10^4 CFU, 37°C, 18 hours
How it was run: as §2

Escherichia coli, 10896 = details: K-10 agar, 10^4 CFU, 37°C, 18 hours
How it was run: as §2

[15] = test system: Serratia marcescens, 9783; details: K-10 agar, 10^4 CFU, 37°C; for MIC: Serratia marcescens, 9783, 18 h, read-out: M.I.C.
How it was run: as §2

SMILES: CON=C(C(=O)NC1C(=O)N(S(=O)(=O)O)C1C)c1csc(N)n1 (stereo not drawn) [Example 9, [3S-[3α(Z),4α]]-3-[[2-Amino-4-thiazolyl)-methoxyimino)acetyl]amino-4-methyl-2-oxo-1-azetidinesulfonic acid, potassium salt]
- M.I.C. ([1]; 18 hours, potassium salt): 0.1 µg/mL
- M.I.C. ([2]; 18 hours, potassium salt): 1.6 µg/mL
- M.I.C. (Micrococcus luteus, 2495; 18 hours, potassium salt): 6.3 µg/mL
- M.I.C. (Escherichia coli, 8294; 18 hours): 0.1 µg/mL
- M.I.C. ([3]; 18 hours, potassium salt): <0.05 µg/mL
- M.I.C. [4]: - (A dash (-) in the tables means that the compound tested did not show activity against the particular organism at 100 µg/ml)
- M.I.C. (Escherichia coli, 10857; 18 hours): <0.05 µg/mL
- M.I.C. [5]: 0.2 µg/mL
- M.I.C. (Proteus rettgeri, 8479): <0.05 µg/mL
- M.I.C. ([6]; potassium salt): 50 µg/mL
- M.I.C. ([7]; 18 hours, potassium salt): 25 µg/mL
- M.I.C. [8]: 100 µg/mL
- M.I.C. ([9]; 18 hours, potassium salt): 0.4 µg/mL
- M.I.C. [10]: 0.1 µg/mL
- M.I.C. [11]: 100 µg/mL
- M.I.C. (Proteus vulgaris, 9416): <0.05 µg/mL
- M.I.C. (Salmonella typhosa, 1195; 18 hours): <0.05 µg/mL
- M.I.C. (Proteus mirabilis, 3855; 18 hours, potassium salt): <0.05 µg/mL
- M.I.C. [12]: 50 µg/mL
- M.I.C. ([13]; potassium salt): 0.2 µg/mL
- M.I.C. (Shigella sonnei, 8449; 18 hours): 0.1 µg/mL
- M.I.C. [14]: - (A dash (-) in the tables means that the compound tested did not show activity against the particular organism at 100 µg/ml)
- M.I.C. (Escherichia coli, 10909): <0.05 µg/mL
- M.I.C. (Escherichia coli, 10896): 0.1 µg/mL
- M.I.C. ([15]; 18 hours, potassium salt): 0.2 µg/mL

SMILES: CC1C(NC(=O)C(NC(=O)N2CCN(N=Cc3ccco3)C2=O)c2ccccc2)C(=O)N1S(=O)(=O)O (stereo not drawn) [Example 11, [3S-[3α(R*),4β]]-3-[[[[[3-[(2-furanyl-methylene)amino]-2-oxo-1-imidazolidinyl]-carbonyl]amino]phenylacetyl]amino]-4-methyl-2-oxo-1-azetidinesulfonic acid, potassium salt]
- MIC [1]: 0.8 µg/mL
- MIC [2]: 0.4 µg/mL
- MIC (Micrococcus luteus, 2495): 6.3 µg/mL
- MIC (Escherichia coli, 8294): 1.6 µg/mL
- MIC [3]: 0.1 µg/mL
- MIC [4]: > 100 µg/mL
- MIC (Escherichia coli, 10857): < 0.05 µg/mL
- MIC [5]: 0.8 µg/mL
- MIC (Proteus rettgeri, 8479): 0.4 µg/mL
- MIC [6]: 25 µg/mL
- MIC [7]: 12.5 µg/mL
- MIC [8]: 25 µg/mL
- MIC [9]: 1.6 µg/mL
- MIC [10]: 0.8 µg/mL
- MIC [11]: 12.5 µg/mL
- MIC (Proteus vulgaris, 9416): < 0.05 µg/mL
- MIC (Salmonella typhosa, 1195): 0.2 µg/mL
- MIC (Proteus mirabilis, 3855): 0.4 µg/mL
- MIC [12]: 25 µg/mL
- MIC [13]: 1.6 µg/mL
- MIC (Shigella sonnei, 8449): 0.4 µg/mL
- MIC [14]: > 100 µg/mL
- MIC (Escherichia coli, 10909): 0.1 µg/mL
- MIC (Escherichia coli, 10896): 0.4 µg/mL
- MIC [15]: 0.8 µg/mL

SMILES: CCN1CCN(C(=O)NC(C(=O)NC2C(=O)N(S(=O)(=O)O)C2C)c2ccccc2)C(=O)C1=O (stereo not drawn) [Example 12, [3S-[3α(R*),4β]]-3-[[[[(4-ethyl-2,3-dioxo-1-piperazinyl)carbonyl]amino]phenylacetyl]-amino]-4-methyl-2-oxo-1-azetidinesulfonic acid, potassium salt]
- MIC [1]: 1.6 µg/mL
- MIC [2]: 6.3 µg/mL
- MIC (Micrococcus luteus, 2495): 6.3 µg/mL
- MIC (Escherichia coli, 8294): 1.6 µg/mL
- MIC [3]: 0.1 µg/mL
- MIC [4]: > 100 µg/mL
- MIC (Escherichia coli, 10857): < 0.05 µg/mL
- MIC [5]: 1.6 µg/mL
- MIC (Proteus rettgeri, 8479): 0.4 µg/mL
- MIC [6]: 50 µg/mL
- MIC [7]: 12.5 µg/mL
- MIC [8]: 25 µg/mL
- MIC [9]: 0.8 µg/mL
- MIC [10]: 1.6 µg/mL
- MIC [11]: 12.5 µg/mL
- MIC (Proteus vulgaris, 9416): < 0.05 µg/mL
- MIC (Salmonella typhosa, 1195): 0.2 µg/mL
- MIC (Proteus mirabilis, 3855): 0.4 µg/mL
- MIC [12]: 50 µg/mL
- MIC [13]: 3.1 µg/mL
- MIC (Shigella sonnei, 8449): 0.8 µg/mL
- MIC [14]: > 100 µg/mL
- MIC (Escherichia coli, 10909): 0.1 µg/mL
- MIC (Escherichia coli, 10896): 1.6 µg/mL
- MIC [15]: 1.6 µg/mL
